Data reported in patent US9006250B2, “4-amino-6-(heterocyclic)picolinates and 6-amino-2-(heterocyclic)pyrimidine-4-carboxylates and their use as herbicides” (Dow AgroSciences, LLC, priority 2013, dated 2015).

Tested on: EPHHL: wild poinsettia (Euphorbia heterophylla)
Assay: Post-Emergent Test II herbicidal activity
Format: in vivo
Settings: post-emergence, 336 h, 140 g ai/ha, 14 days, read-out: Visual Growth Reduction (%) 14 Days After Application EPHHL
Method in brief: (§1)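 Test species are sprayed post-emergence when they reach the first or second true leaf, using an aqueous acetone/DMSO spray with crop oil and surfactant delivered at 187 L/ha. Plants are kept in the greenhouse with subirrigation, and damage compared with untreated plants is rated visually at 14 d on a 0-100% scale.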

| Compound | pest or weed control at 140 g/ha |
| --- | --- |
| COC(=O)c1nc(-c2cc3nonc3cc2F)cc(N)c1Cl [Compound 4, Methyl 4-amino-3-chloro-6-(6-fluorobenzo[c][1,2,5]oxadiazol-5-yl)picolinate] | 95 to 100% |

Tested on: ECHCG: barnyardgrass (Echinochloa crus-galli)
Assay: Post-Emergent Test II herbicidal activity
Format: in vivo
Settings: post-emergence, 336 h, 35 g ai/ha, 14 days, read-out: Visual Growth Reduction (%) 14 Days After Application ECHCG
Method in brief: as §1

| Compound | pest or weed control at 35 g/ha |
| --- | --- |
| COC(=O)c1nc(-c2cc3nonc3cc2F)cc(N)c1Cl [Compound 4, Methyl 4-amino-3-chloro-6-(6-fluorobenzo[c][1,2,5]oxadiazol-5-yl)picolinate] | 85 to 94% |

Same assay, conditions: post-emergence, 336 h, 70 g ai/ha, 14 days, read-out: Visual Growth Reduction (%) 14 Days After Application ECHCG

| Compound | pest or weed control at 70 g/ha |
| --- | --- |
| COC(=O)c1nc(-c2cc3nonc3cc2F)cc(N)c1Cl [Compound 4, Methyl 4-amino-3-chloro-6-(6-fluorobenzo[c][1,2,5]oxadiazol-5-yl)picolinate] | 95 to 100% |

Same assay, conditions: post-emergence, 336 h, 140 g ai/ha, 14 days, read-out: Visual Growth Reduction (%) 14 Days After Application ECHCG

| Compound | pest or weed control at 140 g/ha |
| --- | --- |
| COC(=O)c1nc(-c2cc3nonc3cc2F)cc(N)c1Cl [Compound 4, Methyl 4-amino-3-chloro-6-(6-fluorobenzo[c][1,2,5]oxadiazol-5-yl)picolinate] | 85 to 94% |

Tested on: ORYSA: rice (Oryza sativa)
Assay: Post-Emergent Test II herbicidal activity
Format: in vivo
Settings: post-emergence, 336 h, 35 g ai/ha, 14 days, read-out: Visual Growth Reduction (%) 14 Days After Application ORYSA
Method in brief: as §1

| Compound | pest or weed control at 35 g/ha |
| --- | --- |
| COC(=O)c1nc(-c2cc3nonc3cc2F)cc(N)c1Cl [Compound 4, Methyl 4-amino-3-chloro-6-(6-fluorobenzo[c][1,2,5]oxadiazol-5-yl)picolinate] | 0 to 29% |

Same assay, conditions: post-emergence, 336 h, 70 g ai/ha, 14 days, read-out: Visual Growth Reduction (%) 14 Days After Application ORYSA

| Compound | pest or weed control at 70 g/ha |
| --- | --- |
| COC(=O)c1nc(-c2cc3nonc3cc2F)cc(N)c1Cl [Compound 4, Methyl 4-amino-3-chloro-6-(6-fluorobenzo[c][1,2,5]oxadiazol-5-yl)picolinate] | 0 to 29% |

Same assay, conditions: post-emergence, 336 h, 140 g ai/ha, 14 days, read-out: Visual Growth Reduction (%) 14 Days After Application ORYSA

| Compound | pest or weed control at 140 g/ha |
| --- | --- |
| COC(=O)c1nc(-c2cc3nonc3cc2F)cc(N)c1Cl [Compound 4, Methyl 4-amino-3-chloro-6-(6-fluorobenzo[c][1,2,5]oxadiazol-5-yl)picolinate] | 30 to 44% |

Tested on: CHEAL: lambsquarters (Chenopodium album)
Assay: Post-Emergent Test II herbicidal activity
Format: in vivo
Settings: post-emergence, 336 h, 35 g ai/ha, 14 days, read-out: Visual Growth Reduction (%) 14 Days After Application CHEAL
Method in brief: as §1

| Compound | pest or weed control at 35 g/ha |
| --- | --- |
| COC(=O)c1nc(-c2cc3nonc3cc2F)cc(N)c1Cl [Compound 4, Methyl 4-amino-3-chloro-6-(6-fluorobenzo[c][1,2,5]oxadiazol-5-yl)picolinate] | 85 to 94% |

Same assay, conditions: post-emergence, 336 h, 70 g ai/ha, 14 days, read-out: Visual Growth Reduction (%) 14 Days After Application CHEAL

| Compound | pest or weed control at 70 g/ha |
| --- | --- |
| COC(=O)c1nc(-c2cc3nonc3cc2F)cc(N)c1Cl [Compound 4, Methyl 4-amino-3-chloro-6-(6-fluorobenzo[c][1,2,5]oxadiazol-5-yl)picolinate] | 95 to 100% |

Same assay, conditions: post-emergence, 336 h, 140 g ai/ha, 14 days, read-out: Visual Growth Reduction (%) 14 Days After Application CHEAL

| Compound | pest or weed control at 140 g/ha |
| --- | --- |
| COC(=O)c1nc(-c2cc3nonc3cc2F)cc(N)c1Cl [Compound 4, Methyl 4-amino-3-chloro-6-(6-fluorobenzo[c][1,2,5]oxadiazol-5-yl)picolinate] | 95 to 100% |

Tested on: ABUTH: velvetleaf (Abutilon theophrasti)
Assay: Post-Emergent Test II herbicidal activity
Format: in vivo
Settings: post-emergence, 336 h, 35 g ai/ha, 14 days, read-out: Visual Growth Reduction (%) 14 Days After Application ABUTH
Method in brief: as §1

| Compound | pest or weed control at 35 g/ha |
| --- | --- |
| COC(=O)c1nc(-c2cc3nonc3cc2F)cc(N)c1Cl [Compound 4, Methyl 4-amino-3-chloro-6-(6-fluorobenzo[c][1,2,5]oxadiazol-5-yl)picolinate] | 85 to 94% |

Same assay, conditions: post-emergence, 336 h, 70 g ai/ha, 14 days, read-out: Visual Growth Reduction (%) 14 Days After Application ABUTH

| Compound | pest or weed control at 70 g/ha |
| --- | --- |
| COC(=O)c1nc(-c2cc3nonc3cc2F)cc(N)c1Cl [Compound 4, Methyl 4-amino-3-chloro-6-(6-fluorobenzo[c][1,2,5]oxadiazol-5-yl)picolinate] | 95 to 100% |

Same assay, conditions: post-emergence, 336 h, 140 g ai/ha, 14 days, read-out: Visual Growth Reduction (%) 14 Days After Application ABUTH

| Compound | pest or weed control at 140 g/ha |
| --- | --- |
| COC(=O)c1nc(-c2cc3nonc3cc2F)cc(N)c1Cl [Compound 4, Methyl 4-amino-3-chloro-6-(6-fluorobenzo[c][1,2,5]oxadiazol-5-yl)picolinate] | 95 to 100% |

Tested on: TRZAS: wheat, spring (Triticum aestivum)
Assay: Post-Emergent Test II herbicidal activity
Format: in vivo
Settings: post-emergence, 336 h, 35 g ai/ha, 14 days, read-out: Visual Growth Reduction (%) 14 Days After Application TRZAS
Method in brief: as §1

| Compound | pest or weed control at 35 g/ha |
| --- | --- |
| COC(=O)c1nc(-c2cc3nonc3cc2F)cc(N)c1Cl [Compound 4, Methyl 4-amino-3-chloro-6-(6-fluorobenzo[c][1,2,5]oxadiazol-5-yl)picolinate] | 60 to 74% |

Same assay, conditions: post-emergence, 336 h, 70 g ai/ha, 14 days, read-out: Visual Growth Reduction (%) 14 Days After Application TRZAS

| Compound | pest or weed control at 70 g/ha |
| --- | --- |
| COC(=O)c1nc(-c2cc3nonc3cc2F)cc(N)c1Cl [Compound 4, Methyl 4-amino-3-chloro-6-(6-fluorobenzo[c][1,2,5]oxadiazol-5-yl)picolinate] | 75 to 84% |

Same assay, conditions: post-emergence, 336 h, 140 g ai/ha, 14 days, read-out: Visual Growth Reduction (%) 14 Days After Application TRZAS

| Compound | pest or weed control at 140 g/ha |
| --- | --- |
| COC(=O)c1nc(-c2cc3nonc3cc2F)cc(N)c1Cl [Compound 4, Methyl 4-amino-3-chloro-6-(6-fluorobenzo[c][1,2,5]oxadiazol-5-yl)picolinate] | 75 to 84% |

Tested on: ZEAMX: maize, corn (Zea mays)
Assay: Post-Emergent Test II herbicidal activity
Format: in vivo
Settings: post-emergence, 336 h, 35 g ai/ha, 14 days, read-out: Visual Growth Reduction (%) 14 Days After Application ZEAMX
Method in brief: as §1

| Compound | pest or weed control at 35 g/ha |
| --- | --- |
| COC(=O)c1nc(-c2cc3nonc3cc2F)cc(N)c1Cl [Compound 4, Methyl 4-amino-3-chloro-6-(6-fluorobenzo[c][1,2,5]oxadiazol-5-yl)picolinate] | 85 to 94% |

Same assay, conditions: post-emergence, 336 h, 70 g ai/ha, 14 days, read-out: Visual Growth Reduction (%) 14 Days After Application ZEAMX

| Compound | pest or weed control at 70 g/ha |
| --- | --- |
| COC(=O)c1nc(-c2cc3nonc3cc2F)cc(N)c1Cl [Compound 4, Methyl 4-amino-3-chloro-6-(6-fluorobenzo[c][1,2,5]oxadiazol-5-yl)picolinate] | 85 to 94% |

Same assay, conditions: post-emergence, 336 h, 140 g ai/ha, 14 days, read-out: Visual Growth Reduction (%) 14 Days After Application ZEAMX

| Compound | pest or weed control at 140 g/ha |
| --- | --- |
| COC(=O)c1nc(-c2cc3nonc3cc2F)cc(N)c1Cl [Compound 4, Methyl 4-amino-3-chloro-6-(6-fluorobenzo[c][1,2,5]oxadiazol-5-yl)picolinate] | 85 to 94% |
